# Laboratory results reported in patent publication US10731187B2, “Recombinant strain producing O-aminobenzoate and fermentative production of aniline from renewable resources via 2-aminobenzoic acid” (Covestro Deutschland AG, priority 2014, dated 2020).
# Assay: Solubility of oAB in fermentation broth slurry
# Assay type: physicochemical
# Conditions: fermentation broth of Corynebacterium glutamicum; room temperature, pH 4.5, fermentation broth
# Experimental: An industrial sugar source was used for fermentation of Corynebacterium glutamicum. 100 ml of the broth with a content of 21.5 g/L glucose, 3.7 g/L lactate was mixed with 10 g anthranilic acid in a 250 ml laboratory reactor. […] Afterwards 9.12 g NaOH (32%) were added in 4 portions until a solution was present. […] Following […] HCl (37%) were added within 1 hour. By dosing of HCl first nucleation took place as from a pH-value of 5.8. The number of crystals increased during dosing. […] Afterwards the slurry was stirred for 1 hour. Finally the slurry was filtered.
structure (smiles),measurement,value
"Nc1ccccc1C(=O)O [oAB, 2-aminobenzoic acid]",solubility,~4500 µg/mL
